Laboratory results from patent US20100267561A1, “HERBICIDAL PYRIDAZINONE DERIVATIVES” (priority 2007, published 2010).

Tests used:
Type in all cases: in vivo
[1] = tested on: barnyardgrass (Echinochloa crus-galli); assay: Test D flooded paddy plant response; conditions: Flood, scale 0 to 100 (0 no effect, 100 complete control), 21 days
Source text: (§1) Three plastic pots (ca. 16-cm diameter) for each application rate were partially filled with sterilized Tama silt loam soil comprising a 35:50:15 ratio of sand, silt and clay and 2.6% organic matter. Separate plantings for each of the three pots were as follows. Seeds from the U.S. of ducksalad (Heteranthera limosa), umbrella sedge (Cyperus difformis) and purple redstem (Ammannia coccinea), were planted into one 16-cm pot for each rate. Seeds from the U.S. of rice flatsedge (Cyperus iria), bearded (Brdd.) sprangletop (Leptochloa fascicularis), one stand of 9 or 10 water-seeded rice seedlings (Oryza sativa cv. ‘Japonica—M202’), and one stand of 6 transplanted rice seedlings (Oryza sativa cv. ‘Japonica—M202’) were planted into one 16-cm pot for each rate. Seeds from the U.S. of barnyardgrass (Echinochloa crus-galli), late watergrass (Echinochloa oryzicola), early watergrass (Echinochloa oryzoides) and junglerice (Echinochloa colona) were planted into one 16-cm pot for each rate. Plantings were sequential so that crop and weed species were at the 2.0 to 2.5-leaf stage at time of treatment.
(§2) Potted plants were grown in a greenhouse with day/night temperature settings of 30/27° C., and supplemental balanced lighting was provided to maintain a 16-hour photoperiod. Test pots were maintained in the greenhouse until test completion.
(§3) At time of treatment, test pots were flooded to 3 cm above the soil surface, treated by application of test compounds directly to the paddy water, and then maintained at that water depth for the duration of the test. Effects of treatments on rice and weeds were visually evaluated by comparison to untreated controls after 21 days. Plant response ratings, summarized in Table D, are based on a scale of 0 to 100 where 0 is no effect and 100 is complete control. A dash (-) response means no test result.

[2] = tested on: bearded (Brdd.) sprangletop (Leptochloa fascicularis); assay: Test D flooded paddy plant response; conditions: Flood, scale 0 to 100 (0 no effect, 100 complete control), 21 days
Source text: as §1, §2, §3

[3] = tested on: ducksalad (Heteranthera limosa); assay: Test D flooded paddy plant response; conditions: Flood, scale 0 to 100 (0 no effect, 100 complete control), 21 days
Source text: as §1, §2, §3

[4] = tested on: early watergrass (Echinochloa oryzoides); assay: Test D flooded paddy plant response; conditions: Flood, scale 0 to 100 (0 no effect, 100 complete control), 21 days
Source text: as §1, §2, §3

[5] = tested on: junglerice (Echinochloa colona); assay: Test D flooded paddy plant response; conditions: Flood, scale 0 to 100 (0 no effect, 100 complete control), 21 days
Source text: as §1, §2, §3

[6] = tested on: late watergrass (Echinochloa oryzicola); assay: Test D flooded paddy plant response; conditions: Flood, scale 0 to 100 (0 no effect, 100 complete control), 21 days
Source text: as §1, §2, §3

[7] = tested on: purple redstem (Ammannia coccinea); assay: Test D flooded paddy plant response; conditions: Flood, scale 0 to 100 (0 no effect, 100 complete control), 21 days
Source text: as §1, §2, §3

[8] = tested on: rice flatsedge (Cyperus iria); assay: Test D flooded paddy plant response; conditions: Flood, scale 0 to 100 (0 no effect, 100 complete control), 21 days
Source text: as §1, §2, §3

[9] = tested on: transplanted rice seedlings (Oryza sativa cv. ‘Japonica—M202’); assay: Test D flooded paddy plant response; conditions: Flood, scale 0 to 100 (0 no effect, 100 complete control), 21 days
Source text: as §1, §2, §3

[10] = tested on: umbrella sedge (Cyperus difformis); assay: Test D flooded paddy plant response; conditions: Flood, scale 0 to 100 (0 no effect, 100 complete control), 21 days
Source text: as §1, §2, §3

[11] = tested on: water-seeded rice seedlings (Oryza sativa cv. ‘Japonica—M202’); assay: Test D flooded paddy plant response; conditions: Flood, scale 0 to 100 (0 no effect, 100 complete control), 21 days
Source text: as §1, §2, §3

[12] = tested on: wild oat (AVEFA, Avena fatua); assay: Test F mixtures with safener cloquintocet-mexyl, pre-/postemergence plant response; conditions: applied alone
Source text: (§4) This test evaluated the effect of mixtures of Compound 3, Compound 11, or Compound 12 with the commercial crop safener cloquintocet-mexyl on three plant species. Seeds of test plants consisting of winter wheat (TRZAW, Triticum aestivum), winter barley (HORVX, Hordeum vulgare), and wild oat (AVEFA, Avena fatua) (a weed) were planted into a blend of loam soil and sand and treated preemergence with a directed soil spray using test chemicals formulated in a non-phytotoxic solvent mixture that included a surfactant. At the same time, plants selected from these crop and weed species were treated with postemergence applications of the test chemicals formulated in the same manner. Plants ranged in height from 2 to 18 cm (1- to 4-leaf stage) for postemergence treatments.
(§5) Plants were grown in a greenhouse using supplemental lighting to maintain a photoperiod of about 16 hours; daytime and nighttime temperatures were about 24-30° C. and 19-21° C., respectively. Balanced fertilizer was applied through the watering system. Treatments consisted of Compound 3, Compound 11, or Compound 12 and the above mentioned safener alone and in combination using a spray volume of 457 L/ha. Each treatment was replicated three times. Treated plants and controls were maintained in a greenhouse for 14 to 21 days, after which time all treated plants were compared to controls and visually evaluated. Plant response ratings were calculated as the means of the three replicates and are summarized in Tables F1 to F6, and are based on a scale of 0 to 100 where 0 is no effect and 100 is complete control. Because cloquintocet-mexyl alone caused no injury at the rates tested, the expected effect of a mixture of Compound 3 with cloquintocet-mexyl is the same as the observed effect of Compound 3 applied alone.

[13] = tested on: winter wheat (TRZAW, Triticum aestivum); assay: as above; conditions: applied alone
Source text: as §4, §5

## CCCc1cc(-c2ccc(Cl)cc2)nn1-c1c(O)cnn(C)c1=O [Compound 43]
[1]; 16 g ai/ha
  Plant response rating, Barnyardgrass: 0
[1]; 32 g ai/ha
  Plant response rating, Barnyardgrass: 20
[1]; 64 g ai/ha
  Plant response rating, Barnyardgrass: 60
[1]; 125 g ai/ha
  Plant response rating, Barnyardgrass: 100
[1]; 250 g ai/ha
  Plant response rating, Barnyardgrass: 100
[2]; 16 g ai/ha
  Plant response rating, Sprangletop, Brdd.: 0
[2]; 32 g ai/ha
  Plant response rating, Sprangletop, Brdd.: 0
[2]; 64 g ai/ha
  Plant response rating, Sprangletop, Brdd.: 0
[2]; 125 g ai/ha
  Plant response rating, Sprangletop, Brdd.: 0
[2]; 250 g ai/ha
  Plant response rating, Sprangletop, Brdd.: 20
[3]; 16 g ai/ha
  Plant response rating, Ducksalad: 0
[3]; 32 g ai/ha
  Plant response rating, Ducksalad: 0
[3]; 64 g ai/ha
  Plant response rating, Ducksalad: 0
[3]; 125 g ai/ha
  Plant response rating, Ducksalad: 0
[3]; 250 g ai/ha
  Plant response rating, Ducksalad: 0
[4]; 16 g ai/ha
  Plant response rating, Watergrass, Early: 0
[4]; 32 g ai/ha
  Plant response rating, Watergrass, Early: 0
[4]; 64 g ai/ha
  Plant response rating, Watergrass, Early: 60
[4]; 125 g ai/ha
  Plant response rating, Watergrass, Early: 70
[4]; 250 g ai/ha
  Plant response rating, Watergrass, Early: 100
[5]; 16 g ai/ha
  Plant response rating, Junglerice: 0
[5]; 32 g ai/ha
  Plant response rating, Junglerice: 0
[5]; 64 g ai/ha
  Plant response rating, Junglerice: 60
[5]; 125 g ai/ha
  Plant response rating, Junglerice: 100
[5]; 250 g ai/ha
  Plant response rating, Junglerice: 100
[6]; 16 g ai/ha
  Plant response rating, Watergrass, Late: 0
[6]; 32 g ai/ha
  Plant response rating, Watergrass, Late: 0
[6]; 64 g ai/ha
  Plant response rating, Watergrass, Late: 30
[6]; 125 g ai/ha
  Plant response rating, Watergrass, Late: 65
[6]; 250 g ai/ha
  Plant response rating, Watergrass, Late: 100
[7]; 16 g ai/ha
  Plant response rating, Redstem, Purple: 0
[7]; 32 g ai/ha
  Plant response rating, Redstem, Purple: 0
[7]; 64 g ai/ha
  Plant response rating, Redstem, Purple: 0
[7]; 125 g ai/ha
  Plant response rating, Redstem, Purple: 0
[7]; 250 g ai/ha
  Plant response rating, Redstem, Purple: 0
[8]; 16 g ai/ha
  Plant response rating, Flatsedge, Rice: 0
[8]; 32 g ai/ha
  Plant response rating, Flatsedge, Rice: 0
[8]; 64 g ai/ha
  Plant response rating, Flatsedge, Rice: 0
[8]; 125 g ai/ha
  Plant response rating, Flatsedge, Rice: 0
[8]; 250 g ai/ha
  Plant response rating, Flatsedge, Rice: 0
[9]; 16 g ai/ha
  Plant response rating, Rice, Transplanted: 0
[9]; 32 g ai/ha
  Plant response rating, Rice, Transplanted: 0
[9]; 64 g ai/ha
  Plant response rating, Rice, Transplanted: 0
[9]; 125 g ai/ha
  Plant response rating, Rice, Transplanted: 10
[9]; 250 g ai/ha
  Plant response rating, Rice, Transplanted: 35
[10]; 16 g ai/ha
  Plant response rating, Sedge, Umbrella: 0
[10]; 32 g ai/ha
  Plant response rating, Sedge, Umbrella: 0
[10]; 64 g ai/ha
  Plant response rating, Sedge, Umbrella: 0
[10]; 125 g ai/ha
  Plant response rating, Sedge, Umbrella: 0
[10]; 250 g ai/ha
  Plant response rating, Sedge, Umbrella: 0
[11]; 16 g ai/ha
  Plant response rating, Rice, Water Seeded: 0
[11]; 32 g ai/ha
  Plant response rating, Rice, Water Seeded: 0
[11]; 64 g ai/ha
  Plant response rating, Rice, Water Seeded: 0
[11]; 125 g ai/ha
  Plant response rating, Rice, Water Seeded: 30
[11]; 250 g ai/ha
  Plant response rating, Rice, Water Seeded: 35

## CCc1cc(-c2ccc(C(F)(F)F)cc2)nn1-c1c(OC(=O)OC(C)C)cnn(C)c1=O [Compound 12]
[12]; postemergence, 4 g a.i./ha
  AVEFA Obsd. (observed effect) plant response rating, scale 0 to 100: 13
[12]; postemergence, 8 g a.i./ha
  AVEFA Obsd. (observed effect) plant response rating, scale 0 to 100: 98
[12]; postemergence, 16 g a.i./ha
  AVEFA Obsd. (observed effect) plant response rating, scale 0 to 100: 100
[12]; preemergence, 4 g a.i./ha
  AVEFA Obsd. (observed effect) plant response rating, scale 0 to 100: 7
[12]; preemergence, 8 g a.i./ha
  AVEFA Obsd. (observed effect) plant response rating, scale 0 to 100: 92
[12]; preemergence, 16 g a.i./ha
  AVEFA Obsd. (observed effect) plant response rating, scale 0 to 100: 96
[13]; postemergence, 4 g a.i./ha
  TRZAW Obsd. (observed effect) plant response rating, scale 0 to 100: 0
[13]; postemergence, 8 g a.i./ha
  TRZAW Obsd. (observed effect) plant response rating, scale 0 to 100: 18
[13]; postemergence, 16 g a.i./ha
  TRZAW Obsd. (observed effect) plant response rating, scale 0 to 100: 77
[13]; preemergence, 4 g a.i./ha
  TRZAW Obsd. (observed effect) plant response rating, scale 0 to 100: 0
[13]; preemergence, 8 g a.i./ha
  TRZAW Obsd. (observed effect) plant response rating, scale 0 to 100: 75
[13]; preemergence, 16 g a.i./ha
  TRZAW Obsd. (observed effect) plant response rating, scale 0 to 100: 97
